According to patent US12091411B2, “IRAK degraders and uses thereof” (Kymera Therapeutics, Inc., priority 2022, dated 2024):
Where two headings read alike, the source gives them in different places.

Biological target: T1, IRAK4 (Homo sapiens, UniProt Q9NWZ3)
T1 construct: Degradation of IRAK4 in OCI-LY10 was quantitatively measured using Meso Scale Discovery technology; endogenous in cells; host or cells: OCI-LY10
T1 sequence (Q9NWZ3 1-460): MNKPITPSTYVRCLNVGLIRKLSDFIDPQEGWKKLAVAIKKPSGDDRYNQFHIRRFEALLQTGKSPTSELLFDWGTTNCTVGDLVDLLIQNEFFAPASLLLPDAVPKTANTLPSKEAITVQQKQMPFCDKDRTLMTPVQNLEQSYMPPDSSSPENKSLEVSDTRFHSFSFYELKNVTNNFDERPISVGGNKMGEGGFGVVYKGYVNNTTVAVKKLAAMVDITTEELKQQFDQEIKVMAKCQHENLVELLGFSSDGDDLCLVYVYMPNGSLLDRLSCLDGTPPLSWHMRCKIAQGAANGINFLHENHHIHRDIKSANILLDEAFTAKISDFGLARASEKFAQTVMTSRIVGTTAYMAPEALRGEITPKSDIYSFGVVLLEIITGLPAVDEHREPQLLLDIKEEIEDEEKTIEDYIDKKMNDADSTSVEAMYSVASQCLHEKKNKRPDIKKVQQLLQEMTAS
Test: IRAK4 MSD Degradation in OCI-LY10
Assay type: cell-based
Settings: OCI-LY10 cells, MSD
Summary of the method: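 DC50, from a three-parameter logistic fit and reported as letter bins A (<0.01 μM), B, C, D (>0.2 μM or not tested), reflects IRAK4 loss measured by MSD electrochemiluminescence in OCI-LY10 lysates. Treatment: 8 doses, 1:3 steps, top 1 to 10 μM, 4 to 24 h, 37 °C.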

[1] = 4 hrs incubation, read-out: IRAK4 degradation in OCI-LY10 at 4 hrs: DC50
[2] = 24 hrs incubation, read-out: IRAK4 degradation in OCI-LY10 at 24 hrs: DC50

| DC50 [1] | DC50 [2] | Structure (SMILES) |
| --- | --- | --- |
| > 0.2 µM | > 0.2 µM | Cn1c(=O)n(C2CCC(=O)NC2=O)c2cccc(C#CCOC3CCN(CC4CCN(c5ccc(C(F)F)c(NC(=O)c6cnn7ccc(N8C[C@H]9C[C@@H]8CO9)nc67)c5)CC4)CC3)c21 (stereo partly shown) [I-176] |
| > 0.2 µM | > 0.2 µM | COc1cc2nn([C@H]3CC[C@H](CN4CC(c5cccc6c5n(C)c(=O)n6C5CCC(=O)NC5=O)C4)CC3)cc2cc1NC(=O)c1nc(C(C)(C)F)ccc1OC (stereo partly shown) [I-131] |
| > 0.2 µM | > 0.2 µM | Cn1c(=O)n(C2CCC(=O)NC2=O)c2cccc(C#CCO[C@@H]3CCN(C[C@H]4CC[C@H](n5cc(NC(=O)c6cnn7ccc(N8CCS(=O)(=O)CC8)nc67)c(C(F)F)n5)CC4)C[C@@H]3F)c21 (stereo partly shown) [I-589] |
| > 0.2 µM | > 0.2 µM | CN(C[C@H]1CC[C@H](n2cc(NC(=O)c3cnn4ccc(N5CC6(CC6)C5)nc34)c(C(F)F)n2)CC1)C1CCN(c2cccc3c2n(C)c(=O)n3C2CCC(=O)NC2=O)CC1(F)F (stereo partly shown) [I-506] |
| > 0.2 µM | > 0.2 µM | COc1cc([C@H]2CC[C@H](CN3CCC(OCC#Cc4cccc5c4n(C)c(=O)n5C4CCC(=O)NC4=O)CC3)CC2)ccc1NC(=O)c1cnn2ccc(N3C[C@H]4C[C@@H]3CO4)nc12 (stereo partly shown) [I-184] |
| > 0.2 µM | < 0.01 µM | Cn1c(=O)n(C2CCC(=O)NC2=O)c2cccc(C3CCN(CC4CCC(n5cc6cc(NC(=O)c7cnn8ccc(N9CC%10CC9CO%10)cc78)ncc6n5)CC4)CC3(F)F)c21 (stereo not shown) [I-734] |
| > 0.2 µM | > 0.2 µM | Cn1c(=O)n(C2CCC(=O)NC2=O)c2cccc(N3CCN([C@H]4CC[C@@H](n5cc(NC(=O)c6cnn7ccc(N8C[C@H]9C[C@@H]8CO9)nc67)c(C(F)F)n5)CC4)CC3)c21 (stereo partly shown) [I-424] |
| > 0.2 µM | > 0.2 µM | Cn1c(=O)n(C2CCC(=O)NC2=O)c2cccc(N3CCC(N4CCN([C@H]5CC[C@@H](n6cc(NC(=O)c7cnn8ccc(N9C[C@H]%10C[C@@H]9CO%10)nc78)c(C(F)F)n6)CC5)CC4)CC3)c21 (stereo partly shown) [I-422] |
| > 0.2 µM | 0.01 to 0.1 µM | Cn1c(=O)n(C2CCC(=O)NC2=O)c2cccc(C#CCN3CCN(C(C#N)[C@H]4CC[C@H](n5cc(NC(=O)c6cnn7ccc(N8C[C@H]9C[C@@H]8CO9)nc67)c(C(F)F)n5)CC4)CC3)c21 (stereo partly shown) [I-196] |
| > 0.2 µM | > 0.2 µM | CN(C[C@H]1CC[C@H](n2cc(NC(=O)c3cnn4ccc(N5CCSCC5)nc34)c(C(F)F)n2)CC1)C1CCN(c2cccc3c2n(C)c(=O)n3C2CCC(=O)NC2=O)CC1(F)F (stereo partly shown) [I-541] |
| 0.01 to 0.1 µM | > 0.2 µM | COc1cc2nn([C@H]3CC[C@H](CN4CCC5(CC4)CCN(c4cccc6c4n(C)c(=O)n6C4CCC(=O)NC4=O)CC5)CC3)cc2cc1NC(=O)c1cncc([S+](C)[O-])c1 (stereo partly shown) [I-150] |
| > 0.2 µM | > 0.2 µM | Cn1c(=O)n(C2CCC(=O)NC2=O)c2cccc([C@H]3CCN(C[C@H]4CC[C@H](n5cc6cc(NC(=O)c7cccc(C(F)F)n7)c(C(C)(C)O)cc6n5)CC4)C[C@H]3F)c21 (stereo partly shown) [I-655] |
| 0.01 to 0.1 µM | > 0.2 µM | CC(C)c1ccn2ncc(C(=O)Nc3cn([C@H]4CC[C@H](CN5CCN(CC#Cc6cccc7c6n(C)c(=O)n7C6CCC(=O)NC6=O)CC5)CC4)nc3C(F)F)c2n1 (stereo partly shown) [I-104] |
| 0.01 to 0.1 µM | > 0.2 µM | Cn1c(=O)n([C@@H]2CCC(=O)NC2=O)c2cccc(C#CCN3CCN(C[C@H]4CC[C@H](n5cc(NC(=O)c6cnn7ccc(N8C[C@H]9C[C@@H]8CO9)nc67)c(C(F)F)n5)CC4)CC3)c21 (single isomer, unassigned) [I-71] |
| > 0.2 µM | > 0.2 µM | Cn1c(=O)n(C2CCC(=O)NC2=O)c2cccc(C#CCN3CC4(C3)N(C[C@H]3CC[C@H](n5cc(NC(=O)c6cnn7ccc(N8CCCC8)nc67)c(C(F)F)n5)CC3)CC4(F)F)c21 (stereo partly shown) [I-501] |
| > 0.2 µM | > 0.2 µM | CC1CN(c2ccn3ncc(C(=O)Nc4cn([C@H]5CC[C@H](CN(C)C6CCN(c7cccc8c7n(C)c(=O)n8C7CCC(=O)NC7=O)CC6)CC5)nc4C(F)F)c3n2)CC(C)O1 (stereo partly shown) [I-359] |
| > 0.2 µM | > 0.2 µM | Cn1c(=O)n(C2CCC(=O)NC2=O)c2cccc(-c3ccc(N4CCc5cc(-n6cc(NC(=O)c7cnn8cccnc78)c(C(F)F)n6)ccc5C4)nc3)c21 (stereo not shown) [I-417] |

| DC50 [1] | DC50 [2] | Structure (SMILES) |
| --- | --- | --- |
| > 0.2 µM | > 0.2 µM | Cn1c(=O)n(C2CCC(=O)NC2=O)c2cccc(N3CC(F)(CN(C)[C@H]4CC[C@H](n5cc6cc(NC(=O)c7cccc(C(F)(F)F)n7)ccc6n5)CC4)C3)c21 (stereo partly shown) [I-790] |
| > 0.2 µM | < 0.01 µM | Cn1c(=O)n(C2CCC(=O)NC2=O)c2cccc(C#CCOC3CCN(C[C@H]4CC[C@H](n5cc(NC(=O)c6cnn7ccc(N8CCNCC8)nc67)c(C(F)F)n5)CC4)CC3)c21 (stereo partly shown) [I-308] |
| > 0.2 µM | > 0.2 µM | CN(C[C@H]1CC[C@H](n2cc(NC(=O)c3cnn4ccc(N5CCO[C@H](C(F)F)C5)nc34)c(C(F)F)n2)CC1)C1CCN(c2cccc3c2n(C)c(=O)n3C2CCC(=O)NC2=O)CC1(F)F (stereo partly shown) [I-536] |
| > 0.2 µM | > 0.2 µM | Cn1c(=O)n(C2CCC(=O)NC2=O)c2cccc(N3CC(C4CCN([C@H]5CC[C@H](n6cc(NC(=O)c7cnn8ccc(N9C[C@H]%10C[C@@H]9CO%10)nc78)c(C(F)F)n6)CC5)CC4(F)F)C3)c21 (stereo partly shown) [I-762] |
| > 0.2 µM |  | Cn1c(=O)n(C2CCC(=O)NC2=O)c2cccc(N3CCC(OC[C@H]4CC[C@H](n5cc(NC(=O)c6cnn7cccnc67)c(C(F)F)n5)CC4)CC3)c21 (stereo partly shown) [I-786] |
| > 0.2 µM | > 0.2 µM | CN(C[C@H]1CC[C@H](n2cc(NC(=O)c3cnn4cccnc34)c(C(F)F)n2)CC1)C1C(F)CN(c2cccc3c2n(C)c(=O)n3C2CCC(=O)NC2=O)CC1F (stereo partly shown) [I-483] |
| > 0.2 µM | > 0.2 µM | Cn1c(=O)n(C2CCC(=O)NC2=O)c2cccc(N3CCN(CC4COC5(C4)CN(C[C@H]4CC[C@H](n6cc7cc(NC(=O)c8cccc(C(F)(F)F)n8)ncc7n6)CC4)C5)CC3)c21 (stereo partly shown) [I-662] |
| > 0.2 µM | > 0.2 µM | Cn1c(=O)n(C2CCC(=O)NC2=O)c2cccc(C#CC[C@H]3CN(CC4CCC(n5cc(NC(=O)c6cnn7ccc(N8C[C@H]9C[C@@H]8CO9)nc67)c(C(F)F)n5)CC4)CCO3)c21 (stereo partly shown) [I-379] |
| > 0.2 µM | > 0.2 µM | CN(CC1(F)CCN(c2cccc3c2n(C)c(=O)n3C2CCC(=O)NC2=O)CC1)C1CCC(n2cc3cc(NC(=O)c4cccc(C(F)(F)F)n4)ncc3n2)CC1 (stereo not shown) [I-787] |
| > 0.2 µM | < 0.01 µM | Cn1c(=O)n(C2CCC(=O)NC2=O)c2ccnc(N3CCN([C@@H]4CCN(C[C@H]5CC[C@H](n6cc(NC(=O)c7cnn8ccc(N9C[C@H]%10C[C@@H]9CO%10)nc78)c(C(F)F)n6)CC5)CC4(F)F)CC3)c21 (stereo partly shown) [I-743] |
| < 0.01 µM | > 0.2 µM | Cn1c(=O)n(C2CCC(=O)NC2=O)c2cccc(C#CCN3CCN(C[C@H]4CC[C@H](n5cc(NC(=O)c6cnn7ccc(N8C[C@H]9C[C@@H]8CO9)nc67)c(C(F)F)n5)CC4)CC3)c21 (stereo partly drawn) [I-31, N-[3-(difluoromethyl)-1-[4-[[4-[3-[1-(2,6-dioxo-3-piperidyl)-3-methyl-2-oxo-benzimidazol-4-yl]prop-2-ynyl]piperazin-1-yl]methyl]cyclohexyl]pyrazol-4-yl]-5-[(1R,4R)-2-oxa-5-azabicyclo[2.2.1]heptan-5-yl]pyrazolo[1,5-a]pyrimidine-3-carboxamide] |
| > 0.2 µM | > 0.2 µM | Cn1c(=O)n(C2CCC(=O)NC2=O)c2cccc(C#CCOc3ccc(CN4CCC(n5cc(NC(=O)c6cnn7ccc(N8CC9C[C@@H]8CO9)nc67)c(C(F)F)n5)CC4)cc3)c21 (stereo partly shown) [I-371] |
| > 0.2 µM | > 0.2 µM | Cn1c(=O)n(C2CCC(=O)NC2=O)c2cccc(C#CCN3CCN(C[C@H]4CC[C@H](n5cc(NC(=O)c6cnn7ccc(OC8CCC8)nc67)c(C(F)F)n5)CC4)CC3)c21 (stereo partly shown) [I-244] |
| > 0.2 µM | > 0.2 µM | CN(C[C@H]1CC[C@H](n2cc3cc(NC(=O)c4cccc(C(F)(F)F)n4)c(C(F)F)cc3n2)CC1)C1CCN(c2cccc3c2n(C)c(=O)n3C2CCC(=O)NC2=O)CC1F (stereo partly shown) [I-557] |
| > 0.2 µM | > 0.2 µM | Cn1c(=O)n(C2CCC(=O)NC2=O)c2cccc(C#CCOC3CCN(C[C@H]4CC[C@H](n5cc(NC(=O)c6cnn7ccc(N8C[C@H]9C[C@@H]8CO9)nc67)c(C(C)(C)O)n5)CC4)CC3)c21 (stereo partly shown) [I-174] |
| > 0.2 µM | > 0.2 µM | Cn1c(=O)n(C2CCC(=O)NC2=O)c2cccc(C#CCOC3CCN(C(C#N)[C@H]4CC[C@H](n5cc(NC(=O)c6cnn7ccc(N8C[C@H]9C[C@@H]8CO9)nc67)c(C(F)F)n5)CC4)CC3)c21 (stereo partly drawn) [I-193, N-[1-[4-[cyano-[4-[3-[1-(2,6-dioxo-3-piperidyl)-3-methyl-2-oxo-benzimidazol-4-yl]prop-2-ynoxy]-1-piperidyl]methyl]cyclohexyl]-3-(difluoromethyl)pyrazol-4-yl]-5-[(1R,4R)-2-oxa-5-azabicyclo[2.2.1]heptan-5-yl]pyrazolo[1,5-a]pyrimidine-3-carboxamide] |
| > 0.2 µM | < 0.01 µM | Cn1c(=O)n(C2CCC(=O)NC2=O)c2cccc(C3CCN(C[C@H]4CC[C@H](n5cc6cc(NC(=O)c7cccc(C(F)(F)F)n7)ncc6n5)CC4)CC3F)c21 (stereo partly shown) [I-549] |
